Calls of active or inactive are those of the source. The rule behind the calls is not given here.
Target: SARS coronavirus 3C-like protease (3CLpro)
Experiment: SARS 3CLpro protease inhibitor potency, late-stage follow-up, biochemical, fluorescence, dose response, set 4 (AID 588786)
Conditions: recombinant 3CLpro, fluorogenic peptide cleavage

Compound	IC50
CC(C)(C)c1ccc(N(Cc2cccnc2)C(=O)c2cnc[nH]2)cc1	inactive
COc1cccc(Oc2ccc(N(C(=O)c3ccco3)C(C(=O)NC(C)(C)C)c3cccnc3)cc2)c1 (stereo not given)	inactive
CC(C)(C)NC(=O)C(c1cccnc1)N(C(=O)c1ccco1)c1ccc(-c2cncnc2)cc1 (stereo not given)	4.5 µM
CC(C)(C)NC(=O)C(c1cccnc1)N(C(=O)c1ccco1)c1ccc(-c2cccn2C(=O)OC(C)(C)C)cc1 (stereo not given)	inactive
CC(C)(C)NC(=O)C(c1cccnc1)N(C(=O)c1ccco1)c1ccc(-c2cccc(F)c2F)cc1 (stereo not given)	3.2 µM
CC(C)(C)NC(=O)C(c1cccnc1)N(C(=O)c1ccco1)c1ccc(OCc2ccccc2)cc1 (stereo not given)	inactive
Cc1noc(C)c1-c1ccc(N(C(=O)c2ccco2)C(C(=O)NC(C)(C)C)c2cccnc2)cc1 (stereo not given)	inactive
CC(C)(C)NC(=O)C(c1cccnc1)N(C(=O)c1ccco1)c1ccc(I)cc1 (stereo not given)	inactive
CC(C)(C)NC(=O)C(c1cccnc1)N(C(=O)c1ccco1)c1ccc(-c2ccccc2)cc1 (stereo not given)	2.3 µM
CC(C)(C)NC(=O)C(c1cccnc1)N(C(=O)c1ccco1)c1ccc(-c2cccnc2)cc1 (stereo not given)	inactive
